For data set [1], the target named is T1, 3-oxo-5-alpha-steroid 4-dehydrogenase 1 (Rattus norvegicus, UniProt P24008).
T1 sequence (P24008 whole entry): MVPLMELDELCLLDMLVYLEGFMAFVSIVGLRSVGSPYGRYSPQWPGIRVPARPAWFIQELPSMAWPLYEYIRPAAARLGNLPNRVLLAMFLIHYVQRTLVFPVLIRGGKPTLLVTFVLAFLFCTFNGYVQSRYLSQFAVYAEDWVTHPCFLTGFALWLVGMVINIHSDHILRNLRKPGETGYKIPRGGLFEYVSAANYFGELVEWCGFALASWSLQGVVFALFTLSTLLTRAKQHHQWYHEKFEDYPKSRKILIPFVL
The data set is described as follows: Inhibition of rat liver microsomal 5-alpha reductase 1 assessed as decrease in conversion of testosterone to dihydrotestosterone by chromatographic method. (In general: Liver microsomes are a subcellular fraction often used to study metabolism.)

Data set [2] concerns the target T2, Androgen receptor (Rattus norvegicus) (UniProt P15207).
T2 sequence (whole entry): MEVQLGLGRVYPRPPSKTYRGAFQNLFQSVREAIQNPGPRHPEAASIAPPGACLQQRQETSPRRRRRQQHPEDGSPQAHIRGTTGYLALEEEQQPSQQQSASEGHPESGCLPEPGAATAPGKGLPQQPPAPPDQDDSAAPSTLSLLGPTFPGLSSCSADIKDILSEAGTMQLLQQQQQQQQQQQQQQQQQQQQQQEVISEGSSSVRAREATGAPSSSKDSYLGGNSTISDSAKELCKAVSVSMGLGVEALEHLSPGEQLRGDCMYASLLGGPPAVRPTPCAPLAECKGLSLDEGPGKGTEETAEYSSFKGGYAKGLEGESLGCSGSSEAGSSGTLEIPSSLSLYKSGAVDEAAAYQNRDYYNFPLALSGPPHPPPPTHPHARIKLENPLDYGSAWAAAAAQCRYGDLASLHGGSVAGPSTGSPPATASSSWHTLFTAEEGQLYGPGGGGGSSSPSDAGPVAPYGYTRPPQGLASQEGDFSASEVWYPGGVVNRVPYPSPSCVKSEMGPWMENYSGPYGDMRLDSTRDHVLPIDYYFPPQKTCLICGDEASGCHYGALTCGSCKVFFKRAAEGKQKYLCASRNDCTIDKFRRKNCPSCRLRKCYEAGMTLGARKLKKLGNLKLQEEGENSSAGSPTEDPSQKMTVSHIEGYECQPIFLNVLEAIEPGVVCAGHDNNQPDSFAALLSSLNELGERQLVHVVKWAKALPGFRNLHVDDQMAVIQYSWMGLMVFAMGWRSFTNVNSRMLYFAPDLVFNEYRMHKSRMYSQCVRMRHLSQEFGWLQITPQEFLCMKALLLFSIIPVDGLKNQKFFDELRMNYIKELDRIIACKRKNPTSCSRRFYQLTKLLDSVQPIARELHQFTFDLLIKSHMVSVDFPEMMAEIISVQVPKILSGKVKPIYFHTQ
The data set can be described thus: (§1) Displacement of [3H]-MIB from rat prostate cytosolic androgen receptor by liquid scintillation counting method. In general terms: Displacement assays read how much labelled ligand stays bound in the presence of the test substance.

The test system of data set [3] is Syrian golden hamster. The data set is described as follows: Hyperplasia activity in castrated golden hamster assessed as prostate weight at 2 mg/kg, sc co-administered with testosterone for 6 days (reference value: 98 +/- 12.6 mg). The format is functional, Mesocricetus auratus.
For data set [4], the system named is Syrian golden hamster. The data set is described as follows: Hyperplasia activity in castrated golden hamster assessed as seminal vesicles weight at 2 mg/kg, sc co-administered with testosterone for 6 days (reference value: 200.6 +/- 55 mg). It is filed as functional, Mesocricetus auratus.
The next data set relates to SK-LU-1. The data set can be described thus: Cytotoxicity against human SKLU1 cells assessed as growth inhibition at 50 uM after 48 hrs by sulforhodamine B assay relative to control. It is filed as functional. As to conditions: for inhibition of growth at 50 µM: SK-LU-1, 48 h, read-out: GI. (In general: The SRB assay estimates cell density from bound dye.)
In data set [5] the test system is Syrian golden hamster. The data set can be described thus: Hyperplasia activity in castrated golden hamster assessed as diameter of pigmented spot of flank organs at 2 mg/kg, sc administered for 6 days (reference value: 5.65 +/- 1.12 mm). It is filed as functional, Mesocricetus auratus.
For the next data set, the system named is MCF7. The data set can be described thus: Cytotoxicity against human MCF7 cells assessed as growth inhibition at 50 uM after 48 hrs by sulforhodamine B assay relative to control. The format is functional. The settings on record: for inhibition of growth at 50 µM: MCF7, 48 h, read-out: GI.
For a further data set, the system named is PC-3. The data set is described as follows: Cytotoxicity against human PC3 cells assessed as growth inhibition at 50 uM after 48 hrs by sulforhodamine B assay relative to control. The format is functional. The settings on record: for inhibition of growth at 50 µM: PC-3, 48 h, read-out: GI.
Data set [6] has as its target T3, 3-oxo-5-alpha-steroid 4-dehydrogenase 2 (Homo sapiens, UniProt P31213).
T3 sequence (P31213 whole entry): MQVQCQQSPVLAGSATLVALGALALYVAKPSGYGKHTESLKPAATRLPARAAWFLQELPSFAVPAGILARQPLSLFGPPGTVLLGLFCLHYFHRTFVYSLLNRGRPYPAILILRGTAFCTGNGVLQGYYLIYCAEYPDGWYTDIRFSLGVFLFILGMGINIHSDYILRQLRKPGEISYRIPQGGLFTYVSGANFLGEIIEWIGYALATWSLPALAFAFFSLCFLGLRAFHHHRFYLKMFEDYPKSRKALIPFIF
The data set is described as follows: Inhibition of human prostate 5-alpha reductase 2 assessed as decrease in conversion of testosterone to dihydrotestosterone by chromatographic method.

In data set [7] the test system is Syrian golden hamster. The data set is described as follows: Toxicity in castrated golden hamster at 2 mg/kg, sc co-administered with testosterone for 6 days. It is filed as organism-based, Mesocricetus auratus. The settings on record: in vivo, 144 h.
Another data set deals with T4, Androgen receptor (Rattus norvegicus, UniProt P15207).
T4 sequence (P15207 whole entry): T2 sequence (whole entry)
The data set is described as §1.

These results are taken from ChEMBL document CHEMBL4000250, “Synthesis of new derivatives of 21-imidazolyl-16-dehydropregnenolone as inhibitors of 5α-reductase 2 and with cytotoxic activity in cancer cells” (Bioorg Med Chem, 2017).

Activity calls are given as the source filed them. The rule behind the calls is not given here.

What is called IC50 is the midpoint of a concentration-inhibition curve. Turning to `CC(=O)O[C@H]1CC[C@@]2(C)C(=CC[C@@H]3[C@@H]2CC[C@]2(C)C(C(=O)Cn4ccnc4)=CC[C@@H]32)C1`, the IC50 entry in [1] is “Not Active”; in [6] (read-out: IC50), 122 µM. In data set [2], the inhibition entry is “inactive”. For the same molecule, the Activity is given as 85.8 mg with Syrian golden hamster [3], 200.5 mg in the data set with Syrian golden hamster [4], 3.06 mm in the data set on Syrian golden hamster [5] and “Non-Toxic” in the data set with Syrian golden hamster [7]. Also, the inhibition of growth at 50 µM with SK-LU-1 worked out at 96.7%; in the data set with MCF7, 77.9%; in the data set on PC-3, 79.6%.

In the case of `CCCCC(=O)O[C@H]1CC[C@@]2(C)C(=CC[C@@H]3[C@@H]2CC[C@]2(C)C(C(=O)Cn4ccnc4)=CC[C@@H]32)C1`, the IC50 result in data set [1] and in data set [6] was “Not Active” in each case. Besides, the inhibition entry in data set [2] was “inactive”. The Activity in the data set with Syrian golden hamster [3] is recorded as 80.93 mg; with Syrian golden hamster [4] it was 198.33 mg; in the data set with Syrian golden hamster [5] it was 2.94 mm; with Syrian golden hamster [7], “Non-Toxic”. The inhibition of growth at 50 µM in the data set on SK-LU-1 was 39.2%; in the data set with MCF7 it was 51.3%; in the data set with PC-3, 23.7%.

As for `C[C@]12CC[C@H](OC(=O)C3CCCCCC3)CC1=CC[C@@H]1[C@@H]2CC[C@]2(C)C(C(=O)Cn3ccnc3)=CC[C@@H]12`, the IC50 entry in [1] and in [6] was “Not Active” each time. The inhibition result in [2] is “inactive”. The Activity in the data set with Syrian golden hamster [3] is 70.8 mg; in the data set with Syrian golden hamster [4] it was 143.6 mg; in the data set on Syrian golden hamster [5] it was 2.8 mm; in the data set on Syrian golden hamster [7], “Non-Toxic”. In addition, the “growth inhibition (GI)” value in the data set with SK-LU-1, in the data set with MCF7 and in the data set with PC-3 was “inactive” in each case.

As to `CCCCCC(=O)O[C@H]1CC[C@@]2(C)C(=CC[C@@H]3[C@@H]2CC[C@]2(C)C(C(=O)Cn4ccnc4)=CC[C@@H]32)C1`, the IC50 result in data set [1] and in data set [6] was “Not Active” in each case. Further, the inhibition entry in data set [2] is “inactive”. The Activity was 71.85 mg in the data set on Syrian golden hamster [3], 198.33 mg in the data set with Syrian golden hamster [4], 3.36 mm in the data set on Syrian golden hamster [5] and “Non-Toxic” with Syrian golden hamster [7]. The inhibition of growth at 50 µM in the data set on SK-LU-1 was found to be 28.5%; in the data set with MCF7, 28.1%; in the data set on PC-3 it was 17.2%.

`C[C@]12CC[C@H](OC(=O)C3CCCC3)CC1=CC[C@@H]1[C@@H]2CC[C@]2(C)C(C(=O)Cn3ccnc3)=CC[C@@H]12`: the values for the IC50 entry in [1] and in data set [6] (read-out: IC50) were “Not Active” and 0.035 µM, respectively. In addition, the inhibition result in [2] was “inactive”. Besides, the Activity in the data set on Syrian golden hamster [3] is recorded as 65.1 mg; in the data set with Syrian golden hamster [4] it was 143.7 mg; in the data set on Syrian golden hamster [5], 2 mm; in the data set with Syrian golden hamster [7] it was “Non-Toxic”. The “growth inhibition (GI)” value with SK-LU-1, with MCF7 and in the data set on PC-3 was “inactive” each time.

For `C[C@@H]1CC2=CC(=O)CC[C@@H]2[C@H]2CC[C@@]3(C)[C@@H](CC[C@]3(C)O)[C@@H]21` [MIBOLERONE], the IC50 at Androgen receptor worked out at 0.001 µM.
